Laboratory results published in US11541027B2 (DelMar Pharmaceuticals, Inc., priority 2014, dated 2023).
“Also recorded” adds a separate entry of the source.

Test system: A549 (TKI-sensitive) human lung adenocarcinoma xenograft tumors
Assay: A549 NSCLC xenograft tumor model in female Rag2 mice
Conditions: for MTV at Day 68 / Median survival / TCR at Day 68 / TGD / TGI (%): W, F × 3; for MTV at Day 68 / Median survival / TCR at Day 68 / TGD / TGI (%) / number of animals remaining on study on day 70 / day on which a mean tumor volume of 200 mm^3 was observed / day on which a mean tumor volume of 400 mm^3 was reached / doubling time: A549 model; for TCR at Day 68: tumor control ratio; for TGD: tumor growth delay vs untreated control, doubling time 200 to 400 mm^3; for TGI (%): tumor growth inhibition; for day on which a mean tumor volume of 200 mm^3 was observed / day on which a mean tumor volume of 400 mm^3 was reached: days post-inoculation; for doubling time: mean tumor volume 200 to 400 mm^3
Experimental: Rag2 mice bearing subcutaneous human lung adenocarcinoma xenograft tumors of either TKI-resistant (H1975) or TKI-sensitive (A549) origin were treated.
Two human NSCLC cell lines, A549 (TKI-sensitive) and H1975 (TKI-resistant), were used as xenograft tumor models in female Rag2 mice. The mice were 6 to 8 weeks of age and weighed 18-23 grams. 10 mice were used per group.
Cisplatin was used in normal saline at a dose of 5 mg/kg. Administration was intravenous.
Administration was intraperitoneal.
Treatment was initiated at a tumor volume of 100 mm^3 to 150 mm^3.
The cells were started from a frozen vial of lab stock that were frozen down from the ATCC original vial and kept in liquid nitrogen. Cell cultures with a passage number of 3 to 10 and a confluence of 80%-90% were used. […] Cells were subcultured once weekly with a split ratio 1:3 to 1:8 and expanded.
For cell preparation and harvesting for subcutaneous (s.c.) inoculation, the cells were rinsed briefly once with Hanks Balanced Salt Solution without calcium or magnesium. […] The cells were allowed to sit at 37° C. for a few minutes. The cells were observed under an inverted microscope until the cell layer was dispersed, fresh medium was added, 50 μL of cell suspension was taken and mixed with trypan blue (1:1), and the cells were counted and cell viability assessed by using Cellometer Auto T4. The cells were centrifuged at 200×g for 7 minutes and the supernatant was aspirated. The cells were resuspended in growth medium to obtain a concentration of 100×10^6 cells/mL. For inoculation, 5×10^6 cells were used in an injection volume of 50 μL per mouse in 1:1 Matrigel.
On day 0, tumor cells were implanted subcutaneously into mice in a volume of 50 μL in Matrigel using a 28-gauge needle; injection of the tumor cells was in the back of the mice. Mice were randomly assigned to groups based on tumor volume.
For administration, 5 mL of 0.9% sodium chloride for injection, USP (saline) was added to yield a DAG solution with a concentration of 8 mg/mL.
Mice were injected with the required volume to administer the prescribed dose (mg/kg) to the animals based on individual mouse weights using a 28-gauge needle. The injection volume was 200 μL for a 20-g mouse. The mice were briefly (less than 30 seconds) restrained during intravenous injections. Dilation of the vein for intravenous injections was achieved by holding the animals under a heat lamp for a period of between 1-2 minutes.
Mice were individually weighed and injected intraperitoneally according to body weight at the specified injection concentration (see Table 1). The injection volume was based on 200 μL per 20-g mouse. The abdominal surface was wiped down with 70% isopropyl alcohol to clean the injection site.
Tumor growth was monitored by measuring tumor dimensions with calipers beginning on the first day of treatment. Tumor length and width measurements were obtained each Monday, Wednesday, and Friday. Tumor volumes were calculated according to the equation L×W^2/2 with the length (in mm) being defined as the longer axis of the tumor. Animals were weighed at the time of tumor measurement. Tumors were allowed to grow to a maximum of 800 mm^3 before termination.
All animals had blood collected by cardiac puncture at termination for CBC (complete blood count) with differentiation.
In particular, signs of ill-health were based on body weight loss, change in appetite, and behavioral signs such as altered gait, lethargy, and gross manifestations of stress.

[1] = group 5, 6 mg/kg i.p., only 3 of 9 scheduled doses

## dianhydrogalactitol
1.5 mg/kg i.p. M
  MTV at Day 68: 440 mm^3
  Median survival: 73.5 days
  TCR at Day 68: 0.69
  TGD: 9 days
  TGI (%): 32%
3 mg/kg i.p. M
  MTV at Day 68: 303 mm^3
  Median survival: 82 days
  TCR at Day 68: 0.47
  TGD: 26 days
  TGI (%): 55%
6 mg/kg i.p., treatment stopped after 3 doses, A549 tumor-bearing Rag2 mice
  body weight / tolerability of the dosage: significant body weight loss; also recorded: significant weight loss and morbidity
Group 3, 1.5 mg/kg i.p. Monday, Wednesday, Friday for 3 weeks
  number of animals remaining on study on day 70: 7/10
Group 3, 1.5 mg/kg i.p.
  day on which a mean tumor volume of 200 mm^3 was observed: 45 days
  day on which a mean tumor volume of 400 mm^3 was reached: 67 days
  doubling time: 22
Group 4, 3 mg/kg i.p. Monday, Wednesday, Friday for 3 weeks
  number of animals remaining on study on day 70: 6/10
Group 4, 3 mg/kg i.p.
  day on which a mean tumor volume of 200 mm^3 was observed: 42 days
  day on which a mean tumor volume of 400 mm^3 was reached: 81 days
  doubling time: 39
[1]
  number of animals remaining on study on day 70: 8/10
  day on which a mean tumor volume of 200 mm^3 was observed: 54 days
Groups 4 or 5 (3 or 6 mg/kg i.p.), A549 tumor-bearing Rag2 mice
  hemoglobin (g/L), CBC analysis at termination, versus untreated control: Statistical significance (p<0.05)
